Ends that are not written are not given here.

One data set has as its system RAW264.7 macrophages. Type of data set: cell-based, murine. Here is the method: Murine macrophage cells (RAW264.7) were purchased from the Shanghai Cell Bank, the Institute of Cell Biology, China Academy of Sciences and cultured in Dulbecco’s modified Eagle’s medium (DMEM; HyClone, UT, USA). The DMEM medium was supplemented with 10% (v/v) fetal bovine serum (Bioscience) and 1% (v/v) penicillin/streptomycin (HyClone) and maintained at 37°C in a humidified atmosphere (5% CO2, 95% air).
RAW264.7 viability was measured using a Cell Counting Kit-8 (CCK-8) Assay Kit (Dojinbo, Japan). Cells were seeded in 96-well plates at a density of 2 × 10^4 cells/well and treated with or without YW12D, TP5 and YTP peptides (10–80 μg/mL). After incubation for 24 h, the cells were then incubated in CCK-8 reagent for 4 h at 37°C. The absorbance of each well was measured at 450 nm using a 96-well microplate reader. Cell viability was evaluated as follows:
(1) Cell viability (%)=(OD450 (sample)/OD450 (control))×100%

Another data set addresses T1, recombinant TLR2 (Homo sapiens, UniProt O60603).
T1 construct: purchased R&D Systems
The experiment in a line: SPR binding of YTP to immobilized TLR2. As to conditions: ProteOn XPR36, TLR2 immobilized by amino coupling, 25°C, PBS with 1% Tween 20, 1:1 model. Here is the method:
[…] (SPR) experiments were conducted using a ProteOn XPR36 instrument (Bio-Rad, Hercules, CA, USA) with a ProteOn GLH sensor chip (Bio-Rad) at 25°C. The running buffer (PBS with 1% Tween 20) was continuously passed into the reaction chamber at 30 μL/min. The SPR sensing chip with recombinant TLR2 (R&D Systems) was immobilized by amino coupling to capture YTP. The binding affinity of YTP to TLR2 was examined using peptide concentrations of […]. The running buffer was injected into the empty channels as a reference. Sensor chip regeneration and desorption were achieved by injecting 10 mM Gly-HCl buffer (pH 2.5) before the next round of analyses. The experimental data were processed using ProteOn manager software (version 2.0). The binding curves were processed for the start injection alignment and baseline. The reference-subtracted sensorgram was then fitted to the curves labeling a homogeneous 1:1 model. Protein surface data were grouped to fit the association (Ka) and dissociation (Kd) rate constants. The symmetry dissociation constant (KD) for the peptide-[…] interaction was evaluated by using the following equation: […]

Another data set is described as follows: in vitro. In kind it is in vitro ADME. As to conditions: rat. How it is done:
Rat plasma was collected by centrifuging whole blood from healthy adult rats. YW12D, TP5, and YTP (10 µg/mL) were incubated for different time at 37°C in rat plasma. The samples were collected into prechilled tubes containing 1 mL of acidic acetone (hydrochloric acid/acetone/H2O, 1:40:5) and centrifuged at 2, 000 × g for 20 min at 4°C. The obtained precipitates were dried in vacuum. Then, the dried precipitates were dissolved in 0.5 mL of 1 M acetic acid. The peptide analysis was conducted using HPLC. The half-lives of the peptides were calculated by a logarithm-linear regression analysis of the peptide concentrations.

For data set [1], the target named is recombinant TLR2 (Toll-like receptor 2) (UniProt O60603). The experiment in a line: SPR; ProteOn XPR36, GLH sensor chip; recombinant TLR2 immobilised by amino coupling; YTP passed over at 0, 1.25, 2.5, 5 and 10 (μM in the results, mM in the methods); 25°C; running buffer PBS with 1% Tween 20, 30 μL/min; homogeneous 1:1 model. Background: In SPR one partner is held on a chip, and binding of the other changes the refractive index at the surface.
recombinant TLR2 (Toll-like receptor 2), sequence (O60603 21-588): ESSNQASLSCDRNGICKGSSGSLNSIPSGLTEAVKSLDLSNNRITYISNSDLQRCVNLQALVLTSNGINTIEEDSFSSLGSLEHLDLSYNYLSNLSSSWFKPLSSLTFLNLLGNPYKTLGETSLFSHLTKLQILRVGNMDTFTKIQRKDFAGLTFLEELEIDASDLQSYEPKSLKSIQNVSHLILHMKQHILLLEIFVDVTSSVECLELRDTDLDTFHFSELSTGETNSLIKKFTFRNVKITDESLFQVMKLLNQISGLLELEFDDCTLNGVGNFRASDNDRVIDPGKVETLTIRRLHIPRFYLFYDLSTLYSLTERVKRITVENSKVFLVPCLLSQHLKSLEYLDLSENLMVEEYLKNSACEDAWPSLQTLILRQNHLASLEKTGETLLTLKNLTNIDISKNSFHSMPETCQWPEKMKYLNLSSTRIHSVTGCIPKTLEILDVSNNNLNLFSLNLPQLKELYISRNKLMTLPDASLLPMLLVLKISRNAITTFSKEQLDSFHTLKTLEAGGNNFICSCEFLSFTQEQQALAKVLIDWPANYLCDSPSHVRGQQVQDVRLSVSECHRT

T1 sequence (O60603 21-784, species assumed): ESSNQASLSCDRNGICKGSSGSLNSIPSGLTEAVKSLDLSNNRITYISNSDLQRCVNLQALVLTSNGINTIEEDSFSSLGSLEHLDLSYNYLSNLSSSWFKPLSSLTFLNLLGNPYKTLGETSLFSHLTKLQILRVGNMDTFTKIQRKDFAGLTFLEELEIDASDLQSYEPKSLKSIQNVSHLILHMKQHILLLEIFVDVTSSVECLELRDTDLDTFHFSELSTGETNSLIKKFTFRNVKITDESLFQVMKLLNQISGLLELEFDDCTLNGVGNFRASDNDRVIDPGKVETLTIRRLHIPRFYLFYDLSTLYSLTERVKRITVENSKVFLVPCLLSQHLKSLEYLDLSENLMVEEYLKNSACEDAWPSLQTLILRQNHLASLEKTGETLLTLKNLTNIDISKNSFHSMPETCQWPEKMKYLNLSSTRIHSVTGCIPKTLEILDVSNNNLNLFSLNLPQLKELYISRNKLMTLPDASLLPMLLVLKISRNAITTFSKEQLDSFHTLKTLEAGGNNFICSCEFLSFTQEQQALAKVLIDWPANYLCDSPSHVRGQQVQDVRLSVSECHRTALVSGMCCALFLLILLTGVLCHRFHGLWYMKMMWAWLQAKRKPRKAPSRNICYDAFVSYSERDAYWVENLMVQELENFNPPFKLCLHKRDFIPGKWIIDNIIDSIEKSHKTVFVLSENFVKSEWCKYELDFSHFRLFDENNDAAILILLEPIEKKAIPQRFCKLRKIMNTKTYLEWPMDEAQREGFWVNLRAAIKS

Turning to YVKLWRMIKFIRRKDVY [YTP], the “cytotoxicity at high dose” value in the data set on RAW264.7 macrophages was “no significant cytotoxicity”. Besides, at recombinant TLR2, the Ka (association rate constant) was 4.31e+06 M⁻¹ s⁻¹ and the Kd (dissociation rate constant) is 0.0162 s⁻¹. For the same molecule, the half-life in plasma entry in “in vitro” was “more than 2 h”. The half-life (in general, the time needed for the level to fall by half in the phase considered) at 10 µg/mL in the data set “in vitro” (plasma) was 2 h.

In the case of YVKLWRMIKFIRRKDVY [hybrid peptide YW12D-TP5 (YTP)], in data set [1], the Kd (commonly a measure of binding affinity in units of concentration) was 3.76 nM.

These data come from publication PMC11586334, “Molecular hybridization modification improves the stability and immunomodulatory activity of TP5 peptide” (Frontiers in Immunology, 2024).
